Data: ChEMBL document CHEMBL1287797, “Design and synthesis of harzialactone analogues: promising anticancer agents” (2010)

Assays:
Type in all cases: functional
[1] = tested on: ZR-75-1; experiment: Anticancer activity against human ZR-75-1 cells assessed as inhibition of cell growth at 40 ug/ml by MTT assay
[2] = Anticancer activity against mouse P388D1 cells assessed as inhibition of cell growth at 60 ug/ml by MTT assay
[3] = tested on: HeLa; experiment: Anticancer activity against human HeLa cells assessed as inhibition of cell growth at 80 ug/ml by MTT assay
[4] = tested on: HeLa; experiment: Anticancer activity against human HeLa cells assessed as inhibition of cell growth at 20 ug/ml by MTT assay
[5] = tested on: HL-60; experiment: Anticancer activity against human HL60 cells assessed as inhibition of cell growth at 100ug/ml by MTT assay
[6] = tested on: ZR-75-1; experiment: Anticancer activity against human ZR-75-1 cells assessed as inhibition of cell growth at 10 ug/ml by MTT assay
[7] = tested on: ZR-75-1; experiment: Anticancer activity against human ZR-75-1 cells assessed as inhibition of cell growth at 100ug/ml by MTT assay
[8] = tested on: COLO 205; experiment: Anticancer activity against human COLO205 cells assessed as inhibition of cell growth at 10 ug/ml by MTT assay
[9] = tested on: COLO 205; experiment: Anticancer activity against human COLO205 cells assessed as inhibition of cell growth at 80 ug/ml by MTT assay
[10] = tested on: HeLa; experiment: Anticancer activity against human HeLa cells assessed as inhibition of cell growth at 5 ug/ml by MTT assay
[11] = tested on: HeLa; experiment: Anticancer activity against human HeLa cells assessed as inhibition of cell growth at 10 ug/ml by MTT assay
[12] = tested on: HL-60; experiment: Anticancer activity against human HL60 cells assessed as inhibition of cell growth at 5 ug/ml by MTT assay
[13] = Anticancer activity against mouse P388D1 cells assessed as inhibition of cell growth at 5 ug/ml by MTT assay
[14] = Anticancer activity against mouse P388D1 cells assessed as inhibition of cell growth at 80 ug/ml by MTT assay
[15] = tested on: ZR-75-1; experiment: Anticancer activity against human ZR-75-1 cells assessed as inhibition of cell growth at 20 ug/ml by MTT assay
[16] = tested on: COLO 205; experiment: Anticancer activity against human COLO205 cells assessed as inhibition of cell growth at 20 ug/ml by MTT assay
[17] = tested on: COLO 205; experiment: Anticancer activity against human COLO205 cells assessed as inhibition of cell growth at 60 ug/ml by MTT assay
[18] = tested on: ZR-75-1; experiment: Anticancer activity against human ZR-75-1 cells assessed as inhibition of cell growth at 60 ug/ml by MTT assay
[19] = tested on: COLO 205; experiment: Anticancer activity against human COLO205 cells assessed as inhibition of cell growth at 40 ug/ml by MTT assay
[20] = Anticancer activity against mouse P388D1 cells assessed as inhibition of cell growth at 10 ug/ml by MTT assay
[21] = tested on: HL-60; experiment: Anticancer activity against human HL60 cells assessed as inhibition of cell growth at 60 ug/ml by MTT assay
[22] = tested on: HL-60; experiment: Anticancer activity against human HL60 cells assessed as inhibition of cell growth at 80 ug/ml by MTT assay
[23] = tested on: COLO 205; experiment: Anticancer activity against human COLO205 cells assessed as inhibition of cell growth at 100ug/ml by MTT assay
[24] = Anticancer activity against mouse P388D1 cells assessed as inhibition of cell growth at 100ug/ml by MTT assay
[25] = tested on: HL-60; experiment: Anticancer activity against human HL60 cells assessed as inhibition of cell growth at 10 ug/ml by MTT assay
[26] = tested on: HL-60; experiment: Anticancer activity against human HL60 cells assessed as inhibition of cell growth at 40 ug/ml by MTT assay
[27] = Anticancer activity against mouse P388D1 cells assessed as inhibition of cell growth at 40 ug/ml by MTT assay
[28] = tested on: ZR-75-1; experiment: Anticancer activity against human ZR-75-1 cells assessed as inhibition of cell growth at 80 ug/ml by MTT assay
[29] = Anticancer activity against mouse P388D1 cells assessed as inhibition of cell growth at 20 ug/ml by MTT assay
[30] = tested on: HeLa; experiment: Anticancer activity against human HeLa cells assessed as inhibition of cell growth at 40 ug/ml by MTT assay
[31] = tested on: HeLa; experiment: Anticancer activity against human HeLa cells assessed as inhibition of cell growth at 60 ug/ml by MTT assay
[32] = tested on: HeLa; experiment: Anticancer activity against human HeLa cells assessed as inhibition of cell growth at 100ug/ml by MTT assay
[33] = tested on: HL-60; experiment: Anticancer activity against human HL60 cells assessed as inhibition of cell growth at 20 ug/ml by MTT assay
[34] = tested on: ZR-75-1; experiment: Anticancer activity against human ZR-75-1 cells assessed as inhibition of cell growth at 5 ug/ml by MTT assay
[35] = tested on: COLO 205; experiment: Anticancer activity against human COLO205 cells assessed as inhibition of cell growth at 5 ug/ml by MTT assay

| Compound | inhibition at 40 µg/mL [1] | inhibition at 60 µg/mL [2] | inhibition at 80 µg/mL [3] | inhibition at 20 µg/mL [4] | inhibition at 100 µg/mL [5] | inhibition at 10 µg/mL [6] | inhibition at 100 µg/mL [7] | inhibition at 10 µg/mL [8] | inhibition at 80 µg/mL [9] | inhibition at 5 µg/mL [10] | inhibition at 10 µg/mL [11] | inhibition at 5 µg/mL [12] | inhibition at 5 µg/mL [13] | inhibition at 80 µg/mL [14] | inhibition at 20 µg/mL [15] | inhibition at 20 µg/mL [16] | inhibition at 60 µg/mL [17] | inhibition at 60 µg/mL [18] | inhibition at 5 µg/mL [34] | inhibition at 5 µg/mL [35] | further results |
| --- | --- | --- | --- | --- | --- | --- | --- | --- | --- | --- | --- | --- | --- | --- | --- | --- | --- | --- | --- | --- | --- |
| O=C1O[C@@H](CCc2ccc(Br)cc2)C[C@H]1O | 36.6% | 40.1% | 62.5% | 54.4% | 52.9% | 33% | 42.3% | 26.2% | 72.2% | 52.3% | 52.5% | 20.6% | 10.5% | 40.7% | 35.2% | 29.4% | 43.3% | 37% | 20.9% | 23.1% | inhibition at 40 µg/mL [19]: 40.9%; inhibition at 10 µg/mL [20]: 25.9%; inhibition at 60 µg/mL [21]: 32.6%; inhibition at 80 µg/mL [22]: 47.7%; inhibition at 100 µg/mL [23]: 75.8%; inhibition at 100 µg/mL [24]: 52.5%; inhibition at 10 µg/mL [25]: 22.6%; inhibition at 40 µg/mL [26]: 39.4%; inhibition at 40 µg/mL [27]: 34.6%; inhibition at 80 µg/mL [28]: 38.3%; inhibition at 20 µg/mL [29]: 31.5%; inhibition at 40 µg/mL [30]: 57.5%; inhibition at 60 µg/mL [31]: 60.6%; inhibition at 100 µg/mL [32]: 69.1%; inhibition at 20 µg/mL [33]: 24.5% |
| CO[C@@]12[C@H](COC(N)=O)C3=C(C(=O)C(C)=C(N)C3=O)N1C[C@@H]1N[C@@H]12 [MITOMYCIN] |  |  |  |  |  |  |  |  |  | 56.5% |  | 53.2% | 55.4% |  |  |  |  |  | 51.3% | 56.3% |  |
| O=C1O[C@@H](CCc2ccccc2)C[C@H]1O | 37.4% | 38.3% | 41% | 31.3% | 49% | 35.7% | 50.7% | 16.8% | 65.3% | 23.4% | 31.3% | 28.4% | 27.8% | 40% | 36.1% | 22.8% | 36% | 37.9% | 29.5% | 9.18% | inhibition at 40 µg/mL [19]: 25.4%; inhibition at 10 µg/mL [20]: 31.5%; inhibition at 60 µg/mL [21]: 40%; inhibition at 80 µg/mL [22]: 43.2%; inhibition at 100 µg/mL [23]: 69.3%; inhibition at 100 µg/mL [24]: 45.1%; inhibition at 10 µg/mL [25]: 31%; inhibition at 40 µg/mL [26]: 38.7%; inhibition at 40 µg/mL [27]: 37.6%; inhibition at 80 µg/mL [28]: 43.6%; inhibition at 20 µg/mL [29]: 35.2%; inhibition at 40 µg/mL [30]: 34%; inhibition at 60 µg/mL [31]: 39%; inhibition at 100 µg/mL [32]: 62.4%; inhibition at 20 µg/mL [33]: 36.8% |
